Read-outs that look alike come from different tables or passages of the source.
Columns and labels:
Experiment in all cases: biochemical
Design in all cases: KINOMEscan scanMAX competition binding, DNA-tagged kinases, qPCR read-out, percent control at 300 nM
ADCK4 = target: T1, ADCK4 (Homo sapiens, UniProt Q96D53)
T1 construct: gene COQ8B

CAMKK1 = CAMKK1 (Homo sapiens, UniProt Q8N5S9)
DAPK1 = DAPK1 (Homo sapiens, UniProt P53355)
DRAK2 = target: T2, DRAK2 (Homo sapiens, UniProt O94768)
T2 construct: gene STK17B

EGFR(T790M) = EGFR(T790M) (Homo sapiens, UniProt P00533, T790M)
EPHB3 = EPHB3 (Homo sapiens, UniProt P54753)
ERK4 = target: T3, ERK4 (Homo sapiens, UniProt P31152)
T3 construct: gene MAPK4
T3 sequence (P31152 whole entry): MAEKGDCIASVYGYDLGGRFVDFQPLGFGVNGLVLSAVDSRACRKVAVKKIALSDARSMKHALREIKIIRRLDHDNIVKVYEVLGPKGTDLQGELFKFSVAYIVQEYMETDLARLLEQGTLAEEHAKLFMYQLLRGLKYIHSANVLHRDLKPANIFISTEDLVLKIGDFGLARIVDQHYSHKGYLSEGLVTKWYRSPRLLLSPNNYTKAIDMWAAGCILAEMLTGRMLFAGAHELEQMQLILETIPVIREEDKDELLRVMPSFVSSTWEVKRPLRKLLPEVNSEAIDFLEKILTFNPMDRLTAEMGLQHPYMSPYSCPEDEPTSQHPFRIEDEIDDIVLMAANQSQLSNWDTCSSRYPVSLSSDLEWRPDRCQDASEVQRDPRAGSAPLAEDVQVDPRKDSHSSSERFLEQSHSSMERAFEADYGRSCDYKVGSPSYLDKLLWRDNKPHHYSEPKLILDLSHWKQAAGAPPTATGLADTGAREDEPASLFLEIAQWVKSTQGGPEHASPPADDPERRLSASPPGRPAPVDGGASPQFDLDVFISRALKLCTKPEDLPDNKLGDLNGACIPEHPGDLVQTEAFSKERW

FAK = target: T4, FAK (Homo sapiens, UniProt Q05397)
T4 construct: gene PTK2

KIT(A829P) = KIT(A829P) (Homo sapiens, UniProt P10721, A829P)
MAP3K2 = MAP3K2 (Homo sapiens, UniProt Q9Y2U5)
MAP3K2, sequence (Q9Y2U5 whole entry): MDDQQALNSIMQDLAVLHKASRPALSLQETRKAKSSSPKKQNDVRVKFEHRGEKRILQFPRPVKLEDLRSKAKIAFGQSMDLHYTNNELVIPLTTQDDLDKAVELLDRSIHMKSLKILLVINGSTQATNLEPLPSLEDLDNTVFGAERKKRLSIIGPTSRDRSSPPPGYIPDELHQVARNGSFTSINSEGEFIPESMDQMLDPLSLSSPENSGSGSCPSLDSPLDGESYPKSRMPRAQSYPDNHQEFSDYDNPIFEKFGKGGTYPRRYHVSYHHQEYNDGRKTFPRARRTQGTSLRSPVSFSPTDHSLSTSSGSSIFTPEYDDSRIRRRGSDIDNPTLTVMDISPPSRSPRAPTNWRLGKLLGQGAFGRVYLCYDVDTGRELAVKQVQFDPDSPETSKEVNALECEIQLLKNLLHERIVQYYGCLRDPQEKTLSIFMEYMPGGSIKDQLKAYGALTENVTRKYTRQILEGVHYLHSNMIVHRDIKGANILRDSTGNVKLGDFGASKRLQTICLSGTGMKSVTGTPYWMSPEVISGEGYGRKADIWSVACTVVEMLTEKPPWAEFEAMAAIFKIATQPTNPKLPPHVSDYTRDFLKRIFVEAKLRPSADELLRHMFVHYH

MAP3K4 = MAP3K4 (Homo sapiens, UniProt Q9Y6R4)
NEK9 = NEK9 (Homo sapiens, UniProt Q8TD19)
PCTK3 = target: T5, PCTK3 (Homo sapiens, UniProt Q07002)
T5 construct: gene CDK18

PIK3CA(M1043I) = PIK3CA(M1043I) (Homo sapiens, UniProt P42336, M1043I)
PIK3CA(M1043I), sequence (P42336 whole entry M1043I): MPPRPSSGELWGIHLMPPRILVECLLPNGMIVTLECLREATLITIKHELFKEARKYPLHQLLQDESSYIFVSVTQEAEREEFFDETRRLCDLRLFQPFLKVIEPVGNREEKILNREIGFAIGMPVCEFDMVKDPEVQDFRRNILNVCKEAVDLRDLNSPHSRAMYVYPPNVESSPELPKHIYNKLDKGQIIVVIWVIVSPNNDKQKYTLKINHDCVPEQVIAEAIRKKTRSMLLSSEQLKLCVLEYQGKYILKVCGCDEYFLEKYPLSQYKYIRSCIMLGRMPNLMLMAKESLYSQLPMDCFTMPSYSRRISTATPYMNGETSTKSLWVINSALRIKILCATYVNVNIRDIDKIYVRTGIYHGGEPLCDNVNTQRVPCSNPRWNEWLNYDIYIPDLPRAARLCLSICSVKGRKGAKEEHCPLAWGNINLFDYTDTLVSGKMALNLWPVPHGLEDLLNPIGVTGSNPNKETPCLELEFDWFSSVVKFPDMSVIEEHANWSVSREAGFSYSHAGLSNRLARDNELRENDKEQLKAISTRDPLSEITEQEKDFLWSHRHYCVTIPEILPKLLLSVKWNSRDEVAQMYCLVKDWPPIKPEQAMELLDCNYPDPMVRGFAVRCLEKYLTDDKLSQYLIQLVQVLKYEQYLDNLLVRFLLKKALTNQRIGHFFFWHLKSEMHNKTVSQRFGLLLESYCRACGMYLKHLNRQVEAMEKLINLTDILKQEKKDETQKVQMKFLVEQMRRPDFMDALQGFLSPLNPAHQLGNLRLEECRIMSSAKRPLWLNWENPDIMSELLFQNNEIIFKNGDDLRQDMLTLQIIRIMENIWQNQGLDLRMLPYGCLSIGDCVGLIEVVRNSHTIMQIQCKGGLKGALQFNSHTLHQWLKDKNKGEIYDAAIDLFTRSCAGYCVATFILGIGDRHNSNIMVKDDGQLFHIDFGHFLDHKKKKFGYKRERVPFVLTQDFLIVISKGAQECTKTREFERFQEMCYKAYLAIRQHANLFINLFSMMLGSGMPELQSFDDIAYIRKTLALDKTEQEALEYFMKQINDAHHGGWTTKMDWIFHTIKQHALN

PRKCE = PRKCE (Homo sapiens, UniProt Q02156)
PRKCE, sequence (Q02156 whole entry): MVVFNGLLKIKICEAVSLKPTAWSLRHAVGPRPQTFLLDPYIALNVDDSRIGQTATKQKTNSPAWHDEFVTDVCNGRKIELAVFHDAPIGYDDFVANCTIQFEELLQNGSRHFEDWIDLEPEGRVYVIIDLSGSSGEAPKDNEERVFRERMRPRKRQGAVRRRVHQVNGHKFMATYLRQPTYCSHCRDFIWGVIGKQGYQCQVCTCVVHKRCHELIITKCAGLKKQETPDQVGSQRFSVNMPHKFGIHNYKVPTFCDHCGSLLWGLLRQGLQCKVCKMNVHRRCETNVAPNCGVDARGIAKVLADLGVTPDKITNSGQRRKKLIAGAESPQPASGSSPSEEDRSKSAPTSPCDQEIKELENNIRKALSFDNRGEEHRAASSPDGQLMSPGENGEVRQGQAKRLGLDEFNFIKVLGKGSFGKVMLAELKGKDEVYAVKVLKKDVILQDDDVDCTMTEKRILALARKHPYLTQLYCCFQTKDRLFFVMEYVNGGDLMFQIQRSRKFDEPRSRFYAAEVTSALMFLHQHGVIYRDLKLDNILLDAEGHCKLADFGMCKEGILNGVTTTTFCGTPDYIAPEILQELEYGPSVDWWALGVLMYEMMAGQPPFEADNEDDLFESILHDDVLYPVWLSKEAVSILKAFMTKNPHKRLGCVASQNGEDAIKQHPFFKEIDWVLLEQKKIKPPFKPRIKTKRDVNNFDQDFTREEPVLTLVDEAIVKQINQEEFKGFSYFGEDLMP

[1] = target: T6, RSK2(Kin.Dom.1-N-terminal) (Homo sapiens, UniProt P51812)
T6 construct: gene RPS6KA3; Kin.Dom.1-N-terminal

TESK1 = TESK1 (Homo sapiens, UniProt Q15569)
YSK4 = target: T7, YSK4 (Homo sapiens, UniProt Q56UN5)
T7 construct: gene MAP3K19

ERBB3 = ERBB3 (Homo sapiens, UniProt P21860)
MKK7 = target: T8, MKK7 (Homo sapiens, UniProt O14733)
T8 construct: gene MAP2K7

MST2 = target: T9, MST2 (Homo sapiens, UniProt Q13188)
T9 construct: gene STK3

[2] = target: T10, RPS6KA4(Kin.Dom.1-N-terminal) (Homo sapiens, UniProt O75676)
T10 construct: Kin.Dom.1-N-terminal
T10 sequence (O75676 whole entry): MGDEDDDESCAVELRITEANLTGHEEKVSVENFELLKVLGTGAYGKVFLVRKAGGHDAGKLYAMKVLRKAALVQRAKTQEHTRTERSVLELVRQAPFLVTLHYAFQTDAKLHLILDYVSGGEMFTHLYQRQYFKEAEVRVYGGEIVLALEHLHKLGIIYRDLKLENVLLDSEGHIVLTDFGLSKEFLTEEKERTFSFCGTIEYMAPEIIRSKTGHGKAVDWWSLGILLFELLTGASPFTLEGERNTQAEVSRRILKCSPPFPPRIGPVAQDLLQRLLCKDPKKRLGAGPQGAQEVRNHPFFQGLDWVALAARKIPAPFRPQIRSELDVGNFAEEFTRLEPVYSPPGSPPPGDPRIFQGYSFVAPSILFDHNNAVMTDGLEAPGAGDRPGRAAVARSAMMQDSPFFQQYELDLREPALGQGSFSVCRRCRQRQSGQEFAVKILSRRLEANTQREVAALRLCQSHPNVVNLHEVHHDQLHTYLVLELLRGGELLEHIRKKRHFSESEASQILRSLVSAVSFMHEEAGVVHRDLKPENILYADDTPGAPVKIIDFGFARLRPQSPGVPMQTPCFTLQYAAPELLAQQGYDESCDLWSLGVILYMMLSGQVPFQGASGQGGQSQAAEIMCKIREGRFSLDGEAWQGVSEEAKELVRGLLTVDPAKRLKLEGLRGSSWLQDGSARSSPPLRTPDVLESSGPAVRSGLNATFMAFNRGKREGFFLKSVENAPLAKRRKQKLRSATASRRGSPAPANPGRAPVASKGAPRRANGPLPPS

YSK1 = target: T11, YSK1 (Homo sapiens, UniProt O00506)
T11 construct: gene STK25
T11 sequence (O00506 whole entry): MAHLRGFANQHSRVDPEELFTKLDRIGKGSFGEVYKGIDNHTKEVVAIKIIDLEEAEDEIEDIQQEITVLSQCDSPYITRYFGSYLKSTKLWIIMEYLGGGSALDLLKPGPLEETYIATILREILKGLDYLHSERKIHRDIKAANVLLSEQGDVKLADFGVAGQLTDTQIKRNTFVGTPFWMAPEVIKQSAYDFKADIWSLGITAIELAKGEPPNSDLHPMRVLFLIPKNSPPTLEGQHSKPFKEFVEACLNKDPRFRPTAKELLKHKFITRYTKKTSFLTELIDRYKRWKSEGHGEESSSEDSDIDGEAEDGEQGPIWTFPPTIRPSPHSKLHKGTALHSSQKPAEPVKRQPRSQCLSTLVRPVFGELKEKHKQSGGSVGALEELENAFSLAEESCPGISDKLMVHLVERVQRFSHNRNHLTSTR

[3] = read-out: Percent control / Acalabrutinib
[4] = read-out: Percent control / Ibrutinib
[5] = read-out: Percent control / Zanubrutinib

CAMKK1, sequence (Q8N5S9 whole entry): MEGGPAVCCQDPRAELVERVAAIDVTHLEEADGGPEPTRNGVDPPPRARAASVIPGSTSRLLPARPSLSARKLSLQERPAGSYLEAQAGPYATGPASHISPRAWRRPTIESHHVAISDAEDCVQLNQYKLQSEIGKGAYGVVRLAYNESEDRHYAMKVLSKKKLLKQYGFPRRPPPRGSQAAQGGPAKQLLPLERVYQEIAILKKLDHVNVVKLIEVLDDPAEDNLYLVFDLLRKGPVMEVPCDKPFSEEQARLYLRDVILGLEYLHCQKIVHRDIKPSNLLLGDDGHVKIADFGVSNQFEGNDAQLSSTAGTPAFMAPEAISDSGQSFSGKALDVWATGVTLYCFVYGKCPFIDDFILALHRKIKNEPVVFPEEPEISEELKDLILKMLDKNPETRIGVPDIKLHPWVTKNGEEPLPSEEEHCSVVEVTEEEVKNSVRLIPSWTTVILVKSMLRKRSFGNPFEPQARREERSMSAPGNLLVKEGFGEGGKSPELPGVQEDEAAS

Work on `CC#CC(=O)N1CCC[C@H]1c1nc(-c2ccc(C(=O)Nc3ccccn3)cc2)c2c(N)nccn12` [Acalabrutinib] yielded a remaining binding at 0.3 µM (ADCK4; [3]) of 96%, a remaining binding at 0.3 µM (CAMKK1; [3]) of 92% and a remaining binding at 0.3 µM (DAPK1; [3]) of 94%. For the same compound, the remaining binding at 0.3 µM (DRAK2; [3]) was 97%, the remaining binding at 0.3 µM (EGFR(T790M); [3]) was 93% and the remaining binding at 0.3 µM (EPHB3; [3]) was 91%. The remaining binding at 0.3 µM (ERK4; [3]) was 96%, the remaining binding at 0.3 µM (FAK; [3]) was 79% and the remaining binding at 0.3 µM (KIT(A829P); [3]) was 80%. The remaining binding at 0.3 µM (MAP3K2; [3]) was 97%, the remaining binding at 0.3 µM (MAP3K4; [3]) was 78% and the remaining binding at 0.3 µM (NEK9; [3]) was 82%. For the same compound, the remaining binding at 0.3 µM (PCTK3; [3]) was 90%, the remaining binding at 0.3 µM (PIK3CA(M1043I); [3]) was 90% and the remaining binding at 0.3 µM (PRKCE; [3]) was 96%. The remaining binding at 0.3 µM [1, 3] was 84%, the remaining binding at 0.3 µM (TESK1; [3]) was 79% and the remaining binding at 0.3 µM (YSK4; [3]) was 74%.

`C=CC(=O)N1CCC[C@@H](n2nc(-c3ccc(Oc4ccccc4)cc3)c3c(N)ncnc32)C1` [Ibrutinib] showed a remaining binding at 0.3 µM (DRAK2; [4]) of 82%, a remaining binding at 0.3 µM (ERBB3; [4]) of 1.2% and a remaining binding at 0.3 µM (MKK7; [4]) of 8.1%. It also gave a remaining binding at 0.3 µM (MST2; [4]) of 85%, a remaining binding at 0.3 µM (NEK9; [4]) of 94% and a remaining binding at 0.3 µM [2, 4] of 87%. For the same compound, the remaining binding at 0.3 µM (YSK1; [4]) was 85%.

`CC#CC(=O)N1CC[C@@H](n2c(=O)n(-c3ccc(Oc4ccccc4)cc3)c3c(N)ncnc32)C1` [Tirabrutinib] was tested, and the remaining binding at 0.3 µM (EGFR(T790M); read-out: Percent control / Tirabrutinib) was 75%.

With `C=CC(=O)N1CCC([C@@H]2CCNc3c(C(N)=O)c(-c4ccc(Oc5ccccc5)cc4)nn32)CC1` [Zanubrutinib] the remaining binding at 0.3 µM (ADCK4; [5]) was 100%, the remaining binding at 0.3 µM (CAMKK1; [5]) was 87% and the remaining binding at 0.3 µM (DAPK1; [5]) was 87%. It also gave a remaining binding at 0.3 µM (EPHB3; [5]) of 96%, a remaining binding at 0.3 µM (ERBB3; [5]) of 87% and a remaining binding at 0.3 µM (ERK4; [5]) of 99%. For the same compound, the remaining binding at 0.3 µM (FAK; [5]) was 100%, the remaining binding at 0.3 µM (KIT(A829P); [5]) was 97% and the remaining binding at 0.3 µM (MAP3K2; [5]) was 85%. The remaining binding at 0.3 µM (MAP3K4; [5]) was 75%, the remaining binding at 0.3 µM (MKK7; [5]) was 80% and the remaining binding at 0.3 µM (MST2; [5]) was 100%. For the same compound, the remaining binding at 0.3 µM (PCTK3; [5]) was 92%, the remaining binding at 0.3 µM (PIK3CA(M1043I); [5]) was 90% and the remaining binding at 0.3 µM (PRKCE; [5]) was 100%. For the same compound, the remaining binding at 0.3 µM [2, 5] was 100%, the remaining binding at 0.3 µM [1, 5] was 82% and the remaining binding at 0.3 µM (TESK1; [5]) was 83%. It also gave a remaining binding at 0.3 µM (YSK1; [5]) of 88% and a remaining binding at 0.3 µM (YSK4; [5]) of 100%.

— paper PMC10004634 (PLOS ONE, 2023)
